Data set [1] can be described thus: AUC in Wistar Han rat at 5 mg/kg, po. The data set is classed as ADME, organism-based. To be noted: in vivo.
Data set [2] can be described thus: Cmax in Wistar Han rat at 5 mg/kg, po. The data set is classed as ADME, organism-based. Details: dose 5 mg/kg, route oral. To be noted: in vivo.
Data set [3] can be described thus: Oral bioavailability in Wistar Han rat at 5 mg/kg. Type of data set: ADME, organism-based. To be noted: in vivo.
Data set [4] can be described thus: Half life in Wistar Han rat at 2 mg/kg, iv or 5 mg/kg, po. Type of data set: ADME, organism-based. To be noted: in vivo.
Data set [5] can be described thus: Clearance in Wistar Han rat at 2 mg/kg, iv or 5 mg/kg, po. To be noted: in vivo. The data set is classed as ADME, organism-based.
In data set [6] the target is T1, Protein deacetylase HDAC6 (Homo sapiens, UniProt Q9UBN7).
T1 sequence (Q9UBN7 whole entry): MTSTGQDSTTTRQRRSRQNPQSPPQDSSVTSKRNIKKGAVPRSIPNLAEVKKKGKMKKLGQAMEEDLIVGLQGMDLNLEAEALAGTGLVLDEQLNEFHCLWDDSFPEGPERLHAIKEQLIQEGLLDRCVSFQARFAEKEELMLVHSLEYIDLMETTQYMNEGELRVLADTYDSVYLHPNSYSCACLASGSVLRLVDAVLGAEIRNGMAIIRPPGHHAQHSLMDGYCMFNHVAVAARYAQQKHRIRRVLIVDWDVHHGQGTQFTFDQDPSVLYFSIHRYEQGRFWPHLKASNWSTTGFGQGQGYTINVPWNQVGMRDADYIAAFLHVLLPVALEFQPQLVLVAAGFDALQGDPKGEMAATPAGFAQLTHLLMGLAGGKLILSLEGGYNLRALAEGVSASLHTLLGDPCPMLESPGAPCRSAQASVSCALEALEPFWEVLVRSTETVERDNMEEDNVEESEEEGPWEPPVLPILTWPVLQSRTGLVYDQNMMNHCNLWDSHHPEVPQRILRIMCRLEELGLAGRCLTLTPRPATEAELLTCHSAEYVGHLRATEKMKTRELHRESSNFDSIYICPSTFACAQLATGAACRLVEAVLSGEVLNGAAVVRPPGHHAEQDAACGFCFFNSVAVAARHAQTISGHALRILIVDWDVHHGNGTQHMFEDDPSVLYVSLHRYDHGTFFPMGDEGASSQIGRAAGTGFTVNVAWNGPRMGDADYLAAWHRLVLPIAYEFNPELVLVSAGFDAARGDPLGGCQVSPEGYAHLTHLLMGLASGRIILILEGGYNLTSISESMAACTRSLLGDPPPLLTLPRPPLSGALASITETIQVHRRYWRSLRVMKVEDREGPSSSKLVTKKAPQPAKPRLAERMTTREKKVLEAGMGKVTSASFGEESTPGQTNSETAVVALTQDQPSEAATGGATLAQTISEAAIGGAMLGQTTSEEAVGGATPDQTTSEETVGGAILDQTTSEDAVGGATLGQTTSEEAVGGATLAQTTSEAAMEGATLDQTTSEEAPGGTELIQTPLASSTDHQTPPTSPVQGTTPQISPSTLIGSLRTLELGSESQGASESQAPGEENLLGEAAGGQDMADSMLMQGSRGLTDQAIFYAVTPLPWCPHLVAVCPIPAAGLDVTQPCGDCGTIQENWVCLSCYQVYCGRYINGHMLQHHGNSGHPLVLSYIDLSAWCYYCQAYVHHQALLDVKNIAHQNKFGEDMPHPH
Type of data set: ADME.
Description: Inhibition of HDAC6 (unknown origin)

The subject of data set [7] is Human immunodeficiency virus. In words: microbe, parasite or virus in culture. To be noted: Human immunodeficiency virus 1, 2C4. Type of data set: functional, organism-based.
Description: Reactivation of HIV latency infected in human 2C4 cells in presence of 0.1 % NHS by luciferase reporter gene assay
Data set [8] deals with Human immunodeficiency virus. Put plainly: microbe, parasite or virus in culture. Type of data set: functional, organism-based. To be noted: Human immunodeficiency virus 1, 2C4. This is another data set of the same source.
Data set [9] can be described thus: AUC in Wistar Han rat at 10 mg/kg, po. Type of data set: ADME, organism-based. To be noted: in vivo.
A short description of data set [10]: Cmax in Wistar Han rat at 10 mg/kg, po. Type of data set: ADME, organism-based. Set-up: dose 10 mg/kg, route oral. To be noted: in vivo.
Data set [11] is described as follows: Half life in Wistar Han rat at 2 mg/kg, iv or 10 mg/kg, po. Type of data set: ADME, organism-based. To be noted: in vivo.
Data set [12] in a line: Clearance in Wistar Han rat at 2 mg/kg, iv or 10 mg/kg, po. The data set is classed as ADME, organism-based. To be noted: in vivo.
The nature of data set [13]: Oral bioavailability in Wistar Han rat at 10 mg/kg. Type of data set: ADME, organism-based. To be noted: in vivo.
A short description of data set [14]: AUC in Beagle dog at 2 mg/kg, po. Type of data set: ADME, organism-based, Canis lupus familiaris. To be noted: in vivo.
A short description of data set [15]: Cmax in Beagle dog at 2 mg/kg, po. Details: dose 2 mg/kg, route oral. To be noted: in vivo. Type of data set: ADME, organism-based, Canis lupus familiaris.
Data set [16] in a line: Half life in Beagle dog at 1 mg/kg, iv or 2 mg/kg, po. To be noted: in vivo. Type of data set: ADME, organism-based, Canis lupus familiaris.
Data set [17] is described as follows: Clearance in Beagle dog at 1 mg/kg, iv or 2 mg/kg, po. The data set is classed as ADME, organism-based, Canis lupus familiaris. To be noted: in vivo.
A short description of data set [18]: Oral bioavailability in Beagle dog at 2 mg/kg. Type of data set: ADME, organism-based, Canis lupus familiaris. To be noted: in vivo.
Data set [19] has as its target Histone deacetylase 1 (Homo sapiens, UniProt Q13547).
Description: Inhibition of HDAC1 (unknown origin)
Data set [20] has as its target Histone deacetylase 2 (Homo sapiens, UniProt Q92769).
Description: Inhibition of HDAC2 (unknown origin)

Consider 3 molecules from ChEMBL document CHEMBL4622849, “Discovery of ethyl ketone-based HDACs 1, 2, and 3 selective inhibitors for HIV latency reactivation” (Bioorg Med Chem Lett, 2020).

Sequence of Histone deacetylase 1 (Q13547 whole entry): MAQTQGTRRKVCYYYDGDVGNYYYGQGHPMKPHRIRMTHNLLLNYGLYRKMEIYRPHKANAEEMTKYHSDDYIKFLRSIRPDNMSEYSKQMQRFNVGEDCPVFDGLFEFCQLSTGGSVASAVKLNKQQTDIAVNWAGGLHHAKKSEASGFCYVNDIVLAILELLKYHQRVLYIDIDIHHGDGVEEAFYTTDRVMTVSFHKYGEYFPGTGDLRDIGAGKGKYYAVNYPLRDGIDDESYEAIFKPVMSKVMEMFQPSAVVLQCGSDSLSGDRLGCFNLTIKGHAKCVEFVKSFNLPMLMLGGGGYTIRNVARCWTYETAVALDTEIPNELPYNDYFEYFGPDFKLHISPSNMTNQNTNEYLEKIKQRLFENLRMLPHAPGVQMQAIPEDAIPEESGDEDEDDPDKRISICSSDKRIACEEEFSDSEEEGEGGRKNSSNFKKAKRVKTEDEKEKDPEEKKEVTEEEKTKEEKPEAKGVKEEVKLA
Sequence of Histone deacetylase 2 (Q92769 whole entry): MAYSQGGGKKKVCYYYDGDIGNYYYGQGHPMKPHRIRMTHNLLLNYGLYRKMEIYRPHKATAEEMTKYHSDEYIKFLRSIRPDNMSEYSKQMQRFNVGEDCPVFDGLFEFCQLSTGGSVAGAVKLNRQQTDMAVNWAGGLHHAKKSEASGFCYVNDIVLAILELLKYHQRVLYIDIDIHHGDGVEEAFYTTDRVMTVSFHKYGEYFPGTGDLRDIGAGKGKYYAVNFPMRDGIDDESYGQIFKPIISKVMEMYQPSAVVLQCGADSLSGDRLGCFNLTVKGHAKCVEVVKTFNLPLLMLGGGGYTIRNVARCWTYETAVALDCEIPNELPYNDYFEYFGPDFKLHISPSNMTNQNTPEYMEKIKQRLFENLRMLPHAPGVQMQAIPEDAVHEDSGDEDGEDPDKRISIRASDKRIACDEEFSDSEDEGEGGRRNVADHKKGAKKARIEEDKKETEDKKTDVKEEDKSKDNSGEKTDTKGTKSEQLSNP

The AUC is concentration integrated over time. Read a high AUC as high exposure. As usually defined, the Cmax is the peak of the concentration-time curve. One may read the bioavailability as dose-corrected exposure relative to a reference, in per cent. As a reminder, the half-life is how long it takes for the measured level to halve. A lower half-life goes with fast loss. In turn, `CCC(=O)CCCCC[C@H](NC(=O)[C@H]1CC12CCN(CC)CC2)c1ncc(-c2cc3ccccc3nc2OC)[nH]1` displayed an AUC in data set [1] of 1.13 µM·h. Besides, in [2], the highest level (Cmax) was 260 nM. The bioavailability in data set [3] worked out at 5.8%. Besides, in [4], the half-life was 3 h. Further, the clearance in data set [5] stood at 7.2 mL/min/kg.
As usually defined, the IC50 is the concentration that inhibits the measured activity by half. Read a low IC50 as higher potency. The term EC50 denotes the midpoint of the concentration-response curve. Lower therefore signals an effect from little substance. As for `CCC(=O)CCCCC[C@H](NC(=O)[C@H]1CC12CCN(C)CC2)c1ncc(-c2cc3ccccc3nc2OC)[nH]1`, in data set [6], 157 nM corresponded to half-maximal inhibition (IC50). Besides, the EC50 came out at 26 nM in [7] and 83 nM in data set [8]. Also, the AUC is 2.1 µM·h in [9] and 1.8 µM·h in [14]. In addition, the figures for the Cmax in data set [10] and in [15] were 630 nM and 690 nM, respectively. For the same molecule, the half-life in [11] was 6.6 h; in [16], 7.2 h. Besides, the figures for the clearance in data set [12] and in data set [17] were 22 mL/min/kg and 8.5 mL/min/kg, respectively. Further, the bioavailability amounted to 13% in data set [13] and 22.4% in data set [18].
For the molecule `CCC(=O)CCCCC[C@H](NC(=O)[C@H]1CC12CCN(C)CC2)c1ncc(-c2cc3ccccc3nc2OC)o1`, the results for the IC50 in data set [19] and in data set [20] were 1.5 nM and 4.7 nM, respectively. Moreover, the EC50 in data set [7] stood at 194 nM; in data set [8] it was 310 nM. The molecule further came in with an AUC in data set [9] of 6.77 µM·h. In data set [10], this molecule registered a Cmax of 700 nM. The same molecule showed a half-life in data set [11] of 3.2 h. The molecule also had a clearance in data set [12] of 11 mL/min/kg. In data set [13], this molecule returned a bioavailability of 20.6%.
